A value given as a limit tells only on which side of the number the result lay.

This passage reports IC50 results from paper PMC6407917, “Identification of GSK3186899/DDD853651 as a Preclinical Development Candidate for the Treatment of Visceral Leishmaniasis” (Journal of Medicinal Chemistry, 2018).

Some targets named below: PRKCI (Homo sapiens, UniProt P41743); PRKCD (Homo sapiens, UniProt Q05655); MARK3 (Homo sapiens, UniProt P27448); STK3 (Homo sapiens, UniProt Q13188); RPS6KA3 (Homo sapiens, UniProt P51812); HIPK1 (Homo sapiens, UniProt Q86Z02); TNK2 (Homo sapiens, UniProt Q07912); RPS6KA2 (Homo sapiens, UniProt Q15349); TAOK2 (Homo sapiens, UniProt Q9UL54); IRAK4 (Homo sapiens, UniProt Q9NWZ3); PRKAR2B (Homo sapiens, UniProt P31323); NEK1 (Homo sapiens, UniProt Q96PY6); CSNK1G3 (Homo sapiens, UniProt Q9Y6M4); NEK9 (Homo sapiens, UniProt Q8TD19); MAP3K4 (Homo sapiens, UniProt Q9Y6R4); ILK (Homo sapiens, UniProt Q13418); MAP3K15 (Homo sapiens, UniProt Q6ZN16); NLK (Homo sapiens, UniProt Q9UBE8); LYN (Homo sapiens, UniProt P07948); EIF2AK1 (Homo sapiens, UniProt Q9BQI3); MKNK1 (Homo sapiens, UniProt Q9BUB5).

Assay in all cases: biochemical
Set-up in all cases: species or system HEK293/K-562/placenta mixed human extract; Kinobeads chemoproteomic competition binding, quantified by TMT LC-MS/MS, dose response up to 20 uM

Chain of NEK1 (Q96PY6 whole entry): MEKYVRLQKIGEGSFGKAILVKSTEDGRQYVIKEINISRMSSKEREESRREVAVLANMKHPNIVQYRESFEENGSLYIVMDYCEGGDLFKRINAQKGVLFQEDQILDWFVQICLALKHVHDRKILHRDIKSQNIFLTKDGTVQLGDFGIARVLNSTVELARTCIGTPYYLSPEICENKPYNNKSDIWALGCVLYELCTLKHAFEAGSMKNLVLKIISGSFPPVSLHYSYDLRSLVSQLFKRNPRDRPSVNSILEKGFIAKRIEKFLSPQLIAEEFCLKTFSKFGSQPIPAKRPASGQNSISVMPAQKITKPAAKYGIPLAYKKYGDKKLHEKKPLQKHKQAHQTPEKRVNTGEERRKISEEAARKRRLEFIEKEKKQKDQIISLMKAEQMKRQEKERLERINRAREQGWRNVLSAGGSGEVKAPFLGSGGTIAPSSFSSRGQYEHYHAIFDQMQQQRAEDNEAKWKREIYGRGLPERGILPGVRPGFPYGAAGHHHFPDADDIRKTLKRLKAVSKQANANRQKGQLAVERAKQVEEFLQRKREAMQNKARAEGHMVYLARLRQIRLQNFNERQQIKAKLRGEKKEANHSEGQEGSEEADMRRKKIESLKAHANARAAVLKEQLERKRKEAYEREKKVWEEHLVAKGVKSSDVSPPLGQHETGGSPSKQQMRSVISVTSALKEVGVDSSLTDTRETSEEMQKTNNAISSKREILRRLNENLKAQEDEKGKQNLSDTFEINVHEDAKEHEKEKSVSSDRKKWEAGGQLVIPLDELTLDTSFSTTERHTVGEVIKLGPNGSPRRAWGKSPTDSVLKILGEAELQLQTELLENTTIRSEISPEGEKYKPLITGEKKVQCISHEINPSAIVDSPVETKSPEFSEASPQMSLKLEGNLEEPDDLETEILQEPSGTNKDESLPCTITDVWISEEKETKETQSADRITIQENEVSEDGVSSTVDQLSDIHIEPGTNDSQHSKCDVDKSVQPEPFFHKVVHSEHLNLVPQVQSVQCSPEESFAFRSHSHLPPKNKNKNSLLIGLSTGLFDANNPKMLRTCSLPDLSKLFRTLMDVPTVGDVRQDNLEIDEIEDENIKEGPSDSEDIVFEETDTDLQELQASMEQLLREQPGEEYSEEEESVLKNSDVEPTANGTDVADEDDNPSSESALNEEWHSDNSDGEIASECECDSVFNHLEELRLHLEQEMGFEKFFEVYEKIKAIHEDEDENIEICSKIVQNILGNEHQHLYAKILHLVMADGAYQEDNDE
Chain of PRKCD (Q05655 whole entry): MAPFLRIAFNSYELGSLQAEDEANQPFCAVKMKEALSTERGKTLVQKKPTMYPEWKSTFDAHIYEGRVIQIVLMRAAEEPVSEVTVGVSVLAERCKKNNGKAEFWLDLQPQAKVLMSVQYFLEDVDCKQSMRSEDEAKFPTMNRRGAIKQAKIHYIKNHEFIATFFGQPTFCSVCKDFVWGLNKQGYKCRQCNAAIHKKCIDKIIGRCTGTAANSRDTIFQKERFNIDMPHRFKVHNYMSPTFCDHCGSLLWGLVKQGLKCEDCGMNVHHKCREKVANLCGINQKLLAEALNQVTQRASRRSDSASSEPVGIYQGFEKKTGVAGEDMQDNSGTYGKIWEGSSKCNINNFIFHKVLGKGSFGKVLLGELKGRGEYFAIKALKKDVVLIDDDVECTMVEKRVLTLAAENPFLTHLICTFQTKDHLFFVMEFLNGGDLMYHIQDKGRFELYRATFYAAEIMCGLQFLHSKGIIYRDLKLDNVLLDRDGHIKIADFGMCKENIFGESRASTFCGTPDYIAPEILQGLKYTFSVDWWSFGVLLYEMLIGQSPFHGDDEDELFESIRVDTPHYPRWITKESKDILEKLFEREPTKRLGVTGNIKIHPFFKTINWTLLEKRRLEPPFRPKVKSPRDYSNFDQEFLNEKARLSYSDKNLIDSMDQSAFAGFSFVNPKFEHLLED
Chain of NEK9 (Q8TD19 whole entry): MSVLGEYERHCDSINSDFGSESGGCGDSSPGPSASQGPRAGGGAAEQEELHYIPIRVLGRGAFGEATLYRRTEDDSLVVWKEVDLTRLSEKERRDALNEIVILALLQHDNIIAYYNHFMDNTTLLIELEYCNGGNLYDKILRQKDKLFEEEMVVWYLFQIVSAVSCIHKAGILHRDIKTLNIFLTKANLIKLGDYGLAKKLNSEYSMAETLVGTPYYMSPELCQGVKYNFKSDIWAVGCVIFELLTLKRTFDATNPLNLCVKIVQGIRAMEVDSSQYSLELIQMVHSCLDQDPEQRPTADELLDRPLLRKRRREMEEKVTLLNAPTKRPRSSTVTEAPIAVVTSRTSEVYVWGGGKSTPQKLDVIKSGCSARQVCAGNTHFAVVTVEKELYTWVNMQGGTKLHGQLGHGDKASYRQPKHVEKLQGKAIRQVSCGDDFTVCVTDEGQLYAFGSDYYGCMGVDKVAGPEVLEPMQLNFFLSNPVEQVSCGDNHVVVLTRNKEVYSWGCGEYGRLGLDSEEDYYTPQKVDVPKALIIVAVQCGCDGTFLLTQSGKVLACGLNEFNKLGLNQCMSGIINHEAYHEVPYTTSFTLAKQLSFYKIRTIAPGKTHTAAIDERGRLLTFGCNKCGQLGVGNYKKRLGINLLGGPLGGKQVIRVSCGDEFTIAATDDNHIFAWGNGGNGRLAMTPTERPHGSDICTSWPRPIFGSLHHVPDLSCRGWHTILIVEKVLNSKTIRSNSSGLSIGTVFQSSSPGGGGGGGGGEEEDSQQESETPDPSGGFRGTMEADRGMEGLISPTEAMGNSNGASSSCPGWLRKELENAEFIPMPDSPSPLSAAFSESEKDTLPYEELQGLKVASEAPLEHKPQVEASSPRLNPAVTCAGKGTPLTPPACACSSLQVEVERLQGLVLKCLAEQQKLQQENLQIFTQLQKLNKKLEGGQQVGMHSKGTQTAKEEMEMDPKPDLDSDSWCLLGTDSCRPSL
Chain of PRKAR2B (P31323 whole entry): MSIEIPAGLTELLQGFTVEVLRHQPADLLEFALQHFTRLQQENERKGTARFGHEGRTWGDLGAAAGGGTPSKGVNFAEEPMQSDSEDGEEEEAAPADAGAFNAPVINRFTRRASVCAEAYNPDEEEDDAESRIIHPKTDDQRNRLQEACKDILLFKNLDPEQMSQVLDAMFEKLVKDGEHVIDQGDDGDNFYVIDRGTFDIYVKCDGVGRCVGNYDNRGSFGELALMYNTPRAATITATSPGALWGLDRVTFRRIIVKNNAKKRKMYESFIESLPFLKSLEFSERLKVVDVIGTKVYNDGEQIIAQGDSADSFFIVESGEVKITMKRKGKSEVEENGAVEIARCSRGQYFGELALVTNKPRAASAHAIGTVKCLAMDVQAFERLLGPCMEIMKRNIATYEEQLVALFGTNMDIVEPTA
Chain of STK3 (Q13188 whole entry): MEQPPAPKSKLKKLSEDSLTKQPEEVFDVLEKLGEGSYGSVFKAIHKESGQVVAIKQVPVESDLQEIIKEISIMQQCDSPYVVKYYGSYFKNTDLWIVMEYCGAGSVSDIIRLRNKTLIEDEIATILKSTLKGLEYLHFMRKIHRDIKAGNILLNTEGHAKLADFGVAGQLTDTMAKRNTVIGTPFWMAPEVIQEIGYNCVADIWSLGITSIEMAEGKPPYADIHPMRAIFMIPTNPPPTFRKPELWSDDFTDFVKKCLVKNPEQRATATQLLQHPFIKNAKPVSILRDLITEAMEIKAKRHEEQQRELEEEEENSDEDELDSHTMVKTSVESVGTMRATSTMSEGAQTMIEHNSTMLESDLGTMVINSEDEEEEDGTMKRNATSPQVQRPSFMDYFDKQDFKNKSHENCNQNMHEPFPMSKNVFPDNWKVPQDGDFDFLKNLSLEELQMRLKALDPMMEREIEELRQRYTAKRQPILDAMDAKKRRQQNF
Chain of TAOK2 (Q9UL54 whole entry): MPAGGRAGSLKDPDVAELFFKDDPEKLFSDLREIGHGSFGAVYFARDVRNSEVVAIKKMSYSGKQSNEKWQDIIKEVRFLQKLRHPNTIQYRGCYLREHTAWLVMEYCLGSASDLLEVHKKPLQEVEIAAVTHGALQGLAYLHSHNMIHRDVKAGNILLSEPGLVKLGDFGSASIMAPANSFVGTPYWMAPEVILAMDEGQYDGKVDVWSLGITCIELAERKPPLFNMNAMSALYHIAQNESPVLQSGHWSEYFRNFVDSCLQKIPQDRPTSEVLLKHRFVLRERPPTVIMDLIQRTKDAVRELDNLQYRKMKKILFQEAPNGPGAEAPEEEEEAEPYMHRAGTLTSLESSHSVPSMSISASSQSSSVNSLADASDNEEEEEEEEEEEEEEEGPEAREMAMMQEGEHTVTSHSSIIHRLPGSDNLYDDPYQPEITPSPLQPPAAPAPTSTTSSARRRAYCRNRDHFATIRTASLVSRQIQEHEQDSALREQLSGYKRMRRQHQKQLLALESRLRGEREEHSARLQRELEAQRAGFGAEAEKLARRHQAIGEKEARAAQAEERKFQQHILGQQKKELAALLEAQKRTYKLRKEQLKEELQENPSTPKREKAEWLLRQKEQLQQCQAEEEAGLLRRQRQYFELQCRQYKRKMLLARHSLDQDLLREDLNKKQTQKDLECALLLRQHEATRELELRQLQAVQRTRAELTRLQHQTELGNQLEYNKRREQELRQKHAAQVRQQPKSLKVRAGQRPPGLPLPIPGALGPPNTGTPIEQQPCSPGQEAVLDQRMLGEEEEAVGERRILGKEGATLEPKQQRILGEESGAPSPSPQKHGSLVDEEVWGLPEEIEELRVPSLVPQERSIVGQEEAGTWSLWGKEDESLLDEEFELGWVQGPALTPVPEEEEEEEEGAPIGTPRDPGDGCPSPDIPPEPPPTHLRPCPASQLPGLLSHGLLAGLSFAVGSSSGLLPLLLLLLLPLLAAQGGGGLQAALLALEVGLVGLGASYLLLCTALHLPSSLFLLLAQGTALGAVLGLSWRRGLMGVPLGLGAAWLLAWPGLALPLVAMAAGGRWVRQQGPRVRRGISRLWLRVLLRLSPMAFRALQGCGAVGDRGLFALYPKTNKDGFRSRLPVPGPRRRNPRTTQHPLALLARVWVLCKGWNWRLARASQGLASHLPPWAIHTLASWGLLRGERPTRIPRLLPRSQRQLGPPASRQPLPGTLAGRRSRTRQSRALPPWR

As usually defined, the IC50 is the concentration needed to halve the response being measured. A higher IC50 goes with weaker potency. Take `COc1ccccc1-c1n[nH]c2nc(N[C@H]3CC[C@H](NS(=O)(=O)CCC(F)(F)F)CC3)nc(OC)c12` [compound 31, 3,3,3-Trifluoro-N-(trans-4-((4-methoxy-3-(2-methoxyphenyl)-1H-pyrazolo[3,4-d]pyrimidin-6-yl)amino)cyclohexyl)propane-1-sulfonamide]: the IC50 on PRKCI, on PRKCD, at MARK3, at STK3, at RPS6KA3 and at HIPK1 was not below 20 µM each time. The IC50 was not below 20 µM on TNK2; not below 20 µM at RPS6KA2; 5.2 µM on TAOK2; not below 20 µM at IRAK4; not below 20 µM at PRKAR2B; not below 20 µM at NEK1. The IC50 on CSNK1G3 is not below 20 µM; on NEK9, not below 20 µM; on MAP3K4, not below 20 µM; on ILK, not below 20 µM; at MAP3K15, not below 20 µM; at NLK, 3.4 µM. Besides, the IC50 on LYN, at EIF2AK1 and at MKNK1 was not below 20 µM throughout.
